Values after ≈ are worked out from the molar mass of the structure shown. “Also recorded” adds a separate entry of the source. Read-outs that look alike come from different tables or passages of the source.
Legend:
[1] = Dynamic solubility of crystal form in SGF, FaSSIF, FeSSIF and water (HPLC); type: physicochemical
Method: When a drug solubility test was performed to predict the performances of a drug in vivo, it is important to simulate in vivo conditions as much as possible. For oral drugs, simulated gastric fluid (SGF), fasted state simulated intestinal fluid (FaSSIF) and fed state simulated intestinal fluid (FeSSIF) may be used to simulate in vivo conditions and predict a feeding effect, and the solubility tested in such media was closer to the solubility in the human body environment.

[2] = cited from earlier work
[3] = Mechanical stability: manual grinding, XRPD before and after; type: physicochemical; conditions: ground manually in a mortar for 5 min
[4] = Stability of crystal form DCIII on sealed placement (HPLC purity, XRPD crystal form); type: physicochemical
[5] = Hygroscopicity (Chinese Pharmacopoeia 9103, 25±1° C., 80% relative humidity); type: physicochemical; conditions: 80% RH, 24 h
Method: According to the description of hygroscopicity characteristics and the definition (9103 Drug Hygroscopicity Experiment Guiding Principles, 2020 edition of General Principles, Chinese Pharmacopoeia, experimental conditions: 25±1° C., 80% relative humidity) of the hygroscopic weight gain: • deliquescent: enough water is absorbed to form liquid • very hygroscopic: the hygroscopic weight gain is not less than 15.0% • hygroscopic: the hygroscopic weight gain is less than 15.0% but not less than 2.0% • slightly hygroscopic: the hygroscopic weight gain is less than 2.0% but not less than 0.2% • no or almost no hygroscopicity: the hygroscopic weight gain is […].

[6] = 25° C./60% RH, 1 month, sealed, listed as crystal form DCIII
[7] = 40° C./75% RH, 1 month, sealed, listed as crystal form DCIII
[8] = 60° C./75% RH, 1 month, sealed, listed as crystal form DCIII

C=CC(=O)N1CCN(c2nc(=O)n(-c3c(C)ccnc3C(C)C)c3nc(-c4c(O)cccc4F)c(F)cc23)[C@@H](C)C1 [Anhydrous crystal form I, 6-fluoro-7-(2-fluoro-6-hydroxyphenyl)-1-(4-methyl-2-propane-2-ylpyridin-3-yl)-4-[(2S)-2-methyl-4-propyl-2-enoylpiperazin-1-yl]pyridine[2,3-d]pyrimidin-2-one, reference compound]
Solubility FaSSIF 1 h ([1]; FaSSIF, equilibrated 1 h): 20 µg/mL (≈ 35.7 µM) | Solubility FaSSIF 4 h ([1]; FaSSIF, equilibrated 4 h): 10 µg/mL (≈ 17.8 µM) | Solubility FeSSIF 4 h ([1]; FeSSIF, equilibrated 4 h): 40 µg/mL (≈ 71.4 µM) | Solubility H2O 1 h ([1]; equilibrated 1 h): 10 µg/mL (≈ 17.8 µM) | Solubility H2O 4 h ([1]; equilibrated 4 h): 10 µg/mL (≈ 17.8 µM) | Solubility H2O 24 h ([1]; equilibrated 24 h): 10 µg/mL (≈ 17.8 µM) | solubility at 24 h ([1]; fasted state simulated intestinal fluid (FaSSIF), fassif, thermodynamic from solid, FaSSIF, equilibrated 24 h, read-out: Solubility FaSSIF 24 h): 30 µg/mL (≈ 53.5 µM) | solubility at 24 h ([1]; fed state simulated intestinal fluid (FeSSIF), fessif, thermodynamic from solid, FeSSIF, equilibrated 24 h, read-out: Solubility FeSSIF 24 h): 60 µg/mL (≈ 107 µM) | solubility at 1 h ([1]; simulated gastric fluid (SGF), simulated gastric fluid, thermodynamic from solid, SGF, equilibrated 1 h): 3770 µg/mL (≈ 6720 µM) | solubility at 4 h ([1]; simulated gastric fluid (SGF), simulated gastric fluid, thermodynamic from solid, SGF, equilibrated 4 h): 3860 µg/mL (≈ 6890 µM) | solubility at 24 h ([1]; simulated gastric fluid (SGF), simulated gastric fluid, thermodynamic from solid, SGF, equilibrated 24 h, read-out: Solubility SGF 24 h): 3110 µg/mL (≈ 5550 µM) | Solubility (prior-art form, in words) [2]: low solubility

C=CC(=O)N1CCN(c2nc(=O)n(-c3c(C)ccnc3C(C)C)c3nc(-c4c(O)cccc4F)c(F)cc23)[C@@H](C)C1 [Crystal form DCIII, 6-fluoro-7-(2-fluoro-6-hydroxyphenyl)-1-(4-methyl-2-propane-2-ylpyridin-3-yl)-4-[(2S)-2-methyl-4-propyl-2-enoylpiperazin-1-yl]pyridine[2,3-d]pyrimidin-2-one]
Crystal form before and after grinding (XRPD) [3]: remained unchanged; also recorded: no crystal transformation | Crystallinity after grinding [3]: no significant decrease | Solubility FaSSIF 1 h ([1]; FaSSIF, equilibrated 1 h): 50 µg/mL (≈ 89.2 µM) | Solubility FaSSIF 4 h ([1]; FaSSIF, equilibrated 4 h): 40 µg/mL (≈ 71.4 µM) | Solubility FaSSIF 24 h ([1]; FaSSIF, equilibrated 24 h): 40 µg/mL (≈ 71.4 µM) | Solubility FeSSIF 1 h ([1]; FeSSIF, equilibrated 1 h): 150 µg/mL (≈ 268 µM) | Solubility FeSSIF 4 h ([1]; FeSSIF, equilibrated 4 h): 200 µg/mL (≈ 357 µM) | Solubility FeSSIF 24 h ([1]; FeSSIF, equilibrated 24 h): 80 µg/mL (≈ 143 µM) | Solubility H2O 1 h ([1]; equilibrated 1 h): 30 µg/mL (≈ 53.5 µM) | Solubility H2O 4 h ([1]; equilibrated 4 h): 30 µg/mL (≈ 53.5 µM) | Solubility H2O 24 h ([1]; equilibrated 24 h): 30 µg/mL (≈ 53.5 µM) | Solubility compared with anhydrous crystal form I (in words) ([1]; SGF, FaSSIF, FeSSIF and pure water): higher solubility | Solubility SGF 1 h ([1]; SGF, equilibrated 1 h): 7270 µg/mL (≈ 13000 µM) | Solubility SGF 4 h ([1]; SGF, equilibrated 4 h): 6240 µg/mL (≈ 11100 µM) | Solubility SGF 24 h ([1]; SGF, equilibrated 24 h): 4540 µg/mL (≈ 8100 µM) | Crystal form (XRPD) ([4]; 25° C./60% RH, 1 month, sealed): Crystal form DCIII | Purity (HPLC) ([4]; 25° C./60% RH, 1 month, sealed): 99.45% | Crystal form (XRPD) [4, 6]: remains unchanged | Purity (HPLC) [4, 6]: above 99% | Time for which physicochemical stability is maintained ([4]; 25° C./60% RH, 40° C./75% RH and 60° C./75% RH): at least 1 month | Crystal form (XRPD) ([4]; 40° C./75% RH, 1 month, sealed): Crystal form DCIII | Purity (HPLC) ([4]; 40° C./75% RH, 1 month, sealed): 99.49% | Crystal form (XRPD) [4, 7]: remains unchanged | Purity (HPLC) [4, 7]: does not present a significant decrease | Crystal form (XRPD) ([4]; 60° C./75% RH, 1 month, sealed): Crystal form DCIII | Purity (HPLC) ([4]; 60° C./75% RH, 1 month, sealed): 99.50% | Crystal form (XRPD) [4, 8]: remains unchanged | Purity (HPLC) [4, 8]: does not present a significant decrease | Crystal form (XRPD) ([4]; Onset): Crystal form DCIII | Purity (HPLC) ([4]; Onset): 99.44% | Weight gain percentage [5]: 0.6% | Weight gain mass ([5]; onset mass 102.76 mg): 0.64 mg

Source: patent publication US20240409537A1, “Crystal Form of AMG510 Compound, and Preparation Method Thereof and Use Thereof” (BIRDO (SHANGHAI) PHARMACEUTICAL R&D CO., LTD, priority 2021, published 2024)
